Results taken from PMC10510397, “Development of a Selective Peptide κ-Opioid Receptor Antagonist by Late-Stage Functionalization with Cysteine Staples” (Journal of Medicinal Chemistry, 2023).
Where a name gives a salt, the structure may show the parent alone. Read-outs that look alike come from different tables or passages of the source. Numbered stars: 1 amine (or outer) side, 2 acyl side, 3 side chain; on linkers, the order of the positions; unused ones are H or OH. Bridge positions count the residues as written; N and C are the ends. Square brackets hold non-standard residues; d marks the D form. Peptide text beside a SMILES is read from it. CH2COCH2 = O=C(C[*:1])C[*:2]; CH2 = C([*:1])[*:2]; Mpa = O=C(O)CCS

Assays:
mouse KOR [1] = molecular target: T1, mouse KOR (Mus musculus, UniProt P33534); assay: cell-based; type: cell-based; parameters: expressed in transfected cells; conditions: for Emax: read-out: potency/efficacy cAMP Emax ± SD; for activity at KOR in the functional cAMP assay: agonist mode, ligand on its own, up to concentrations of 10 μM; for EC50: HEK293 cells stably expressing mouse KOR, forskolin 10 μM, n.a. = not active, read-out: potency/efficacy cAMP EC50 ± SD
[2] = stability assay in human serum (RP-HPLC); type: in vitro ADME; conditions: 37 °C
Description: The stability of peptide ligands was determined with human serum from male AB plasma (Sigma) centrifuged at 13,300g for 10 min to remove the lipid content. The supernatant was preincubated at 37 °C for 5 min before 10 μL of a peptide stock solution (3 mg/mL in H2O) was added to 300 μL of serum. A reference solution was prepared in phosphate-buffered saline (PBS) buffer. The serum was incubated at 37 °C and analyzed over a time course of 5 h with 40 μL of aliquots removed at time points T = 0, 15, 30, 60, 90, 120, 240, and 300 min. Each aliquot was quenched with 40 μL of 5 M urea and incubated on ice for 10 min. The proteins were then precipitated with the addition of 40 μL of 20% (w/v) trichloroacetic acid and further incubated on ice for 10 min. The samples were centrifuged for 10 min at 15,000g, and the supernatant was analyzed by analytical RP-HPLC using a Phenomenex Jupiter C18 column (5 μm, 300 Å, 150 × 2 mm) using a linear gradient from 0 to 50% solvent B (90% acetonitrile, 10% H2O, and 0.05% trifluoroacetic acid) and a flow rate of 1 mL/min. The percentage of peptide remaining was determined by the integration of the analyte in comparison to T = 0 min. The peptides were analyzed in triplicate, and data were fitted to an exponential decay curve using GraphPad Prism software.

mouse KOR [3] = molecular target: T1, mouse KOR; type: cell-based; parameters: expressed in transfected cells; host or cells: HEK293 (transient co-transfection, 1:10 ratio); conditions: 10 μM ligand; compared to dynA1–13-NH2 = 100%
DRG neurons = assay: single-cell calcium microfluorimetry in DRG neurons; type: cell-based, mouse; conditions: 0.5 μM pre-applied, U50,488 10 μM
mice [4] = assay: radiant heat tail-flick assay; type: in vivo, mouse; conditions: 10 mg/kg s.c., 24 h before U50,488 5 mg/kg
Description: (§1) Breeding, euthanasia, and all procedures of animal handling were performed according to the regulations of animal care and welfare. Experiments were carried out in accordance with the European Communities Council Directive of 24 November 1986 (86/609/EEC). Behavioral experiments were performed in male CD1 mice (8–10 weeks old) purchased from Janvier Labs (Le Genest-Saint-Isle, France). All animal care and experimental procedures were in accordance with the ethical guidelines for the animal welfare standards of the European Communities Council Directive (2010/63/EU) and were approved by the Committee of Animal Care of the Austrian Federal Ministry of Science and Research. […]
The radiant heat tail-flick test was performed using an UB 37360 Ugo Basile analgesiometer (Ugo Basile s.r.l., Varese, Italy) as described previously.[52] The reaction time required by the mouse to remove its tail after application of the radiant heat was measured and defined as the tail-flick latency (in seconds). Tail-flick latencies were measured before and after s.c. administration of saline (control) or U50,488 (5 mg/kg) (i.e., 30 and 60 min) (test latency, TL). […] The antinociceptive effect (as the percentage of the maximum possible effect, % MPE) was calculated according to the formula = [(TL – BL)/(cutoff time – BL)] × 100 where TL represents the test latency and BL is the basal latency.

mice [5] = assay: rotarod test; type: in vivo, mouse; conditions: 10 mg/kg s.c., 24 h before U50,488 5 mg/kg; at 30 min
Description: as §1, with “Research. Mice were group-housed in a temperature-controlled specific pathogen-free room with a 12 h light/dark cycle and with free access to food and water.” for “Research.”
The rotarod test was performed using the accelerating rotarod treadmill (Acceler Rota-Rod 7650, Ugo Basile s.r.l., Varese, Italy) for mice (diameter 3.5 cm) as described previously.[53] […] The time spent on the drum was recorded for each mouse before (baseline) and at 30 min after s.c. administration of saline (control) or U50,488 (5 mg/kg). […] The rotarod data are expressed as percentage (%) changes from the rotarod latencies obtained before (baseline, BL) and after drug administration (test, TL) calculated as 100 × (TL/BL).

mouse KOR [6] = molecular target: T1, mouse KOR; assay: biochemical; type: binding; parameters: expressed in transfected cells
[7] = 1 nM [3H]-diprenorphine, HEK293 cell membranes stably expressing mouse KOR, read-out: affinity Ki ± SD

T1 sequence (P33534 whole entry): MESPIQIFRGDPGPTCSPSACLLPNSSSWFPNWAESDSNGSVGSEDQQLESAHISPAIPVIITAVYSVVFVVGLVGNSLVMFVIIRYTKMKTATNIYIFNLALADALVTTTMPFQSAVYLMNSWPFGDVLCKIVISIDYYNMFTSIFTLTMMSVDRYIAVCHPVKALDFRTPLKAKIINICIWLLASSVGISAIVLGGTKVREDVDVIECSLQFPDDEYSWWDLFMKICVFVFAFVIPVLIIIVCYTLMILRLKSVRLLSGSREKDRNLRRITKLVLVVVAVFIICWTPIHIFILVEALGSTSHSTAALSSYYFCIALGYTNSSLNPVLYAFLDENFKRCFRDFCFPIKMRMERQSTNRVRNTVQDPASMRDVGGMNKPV

CC(C)C[C@H](NC(=O)[C@H](CCCCN)NC(=O)[C@@H]1CCCN1C(=O)[C@H](CCCNC(=N)N)NC(=O)[C@@H]1CSCC(=O)CSCCC(=O)N[C@@H](Cc2ccc(O)cc2)C(=O)NCC(=O)NCC(=O)N[C@@H](Cc2ccccc2)C(=O)N[C@@H](CC(C)C)C(=O)N[C@@H](CCCNC(=N)N)C(=O)N[C@@H](CCCNC(=N)N)C(=O)N1)C(=O)N[C@@H](CCCCN)C(N)=O [CSD-ace(1,8)-NH2] ([Mpa]YGGFLRRCRPKLK-NH2; linker 1-9 via CH2COCH2)
Emax (mouse KOR [1]): 73 ± 14%

CC(C)C[C@H](NC(=O)[C@H](CCCCN)NC(=O)[C@@H]1CCCN1C(=O)[C@H](CCCNC(=N)N)NC(=O)[C@@H]1CSCSCCC(=O)N[C@@H](Cc2ccc(O)cc2)C(=O)NCC(=O)NCC(=O)N[C@@H](Cc2ccccc2)C(=O)N[C@@H](CC(C)C)C(=O)N[C@@H](CCCNC(=N)N)C(=O)N[C@@H](CCCNC(=N)N)C(=O)N1)C(=O)N[C@@H](CCCCN)C(=O)O [CSD-CH2(1,8)-OH] ([Mpa]YGGFLRRCRPKLK-OH; linker 1-9 via CH2)
activity at KOR in the functional cAMP assay (mouse KOR [1]): inactive

CC[C@H](C)[C@H](NC(=O)[C@H](CCCNC(=N)N)NC(=O)[C@H](CCCNC(=N)N)NC(=O)[C@H](CC(C)C)NC(=O)[C@H](Cc1ccccc1)NC(=O)CNC(=O)CNC(=O)[C@@H](N)Cc1ccc(O)cc1)C(=O)N[C@@H](CCCNC(=N)N)C(=O)N1CCC[C@H]1C(=O)N[C@@H](CCCCN)C(=O)N[C@@H](CC(C)C)C(=O)N[C@@H](CCCCN)C(N)=O [dynA1–13-NH2, Dynorphin (dyn) A1–13 amide trifluoroacetate salt, reference compound]
t1/2 in human serum [2]: 4 min | EC50 (mouse KOR [1]): 9.1 nM | Emax (mouse KOR [1]): 100% | β-arrestin-2 recruitment efficiency (ligand induced BRET) (mouse KOR [3]): 100%

Oc1ccc2c3c1O[C@H]1c4[nH]c5c(c4C[C@@]4(O)[C@@H](C2)N(CC2CC2)CC[C@]314)C[C@@]1(O)[C@H]2Cc3ccc(O)c4c3[C@@]1(CCN2CC1CC1)[C@H]5O4 [nor-BNI, norbinaltorphimine]
effect on U50,488-induced calcium signals in DRG neurons (DRG neurons): inhibited the activity of U50,488 | antagonism of U50,488-induced antinociception (mice [4]): blocked the antinociceptive response of U50,488 | antagonism of U50,488 effect in the rotarod test (mice [5]): Antagonism

CC(C)C[C@H](NC(=O)[C@H](CCCCN)NC(=O)[C@@H]1CCCN1C(=O)[C@H](CCCNC(=N)N)NC(=O)[C@@H]1CSCC(=O)CSCCC(=O)N[C@@H](Cc2ccc(O)cc2)C(=O)NCC(=O)NCC(=O)N[C@@H](Cc2ccccc2)C(=O)N[C@@H](CC(C)C)C(=O)N[C@@H](CCCNC(=N)N)C(=O)N[C@@H](CCCNC(=N)N)C(=O)N1)C(=O)N[C@@H](CCCCN)C(=O)O [CSD-ace(1,8)-OH] ([Mpa]YGGFLRRCRPKLK-OH; linker 1-9 via CH2COCH2)
Emax (mouse KOR [1]): 57 ± 11%

CC(C)C[C@H](NC(=O)[C@H](CCCCN)NC(=O)[C@@H]1CCCN1C(=O)[C@H](CCCNC(=N)N)NC(=O)[C@@H]1CSCSCCC(=O)N[C@@H](Cc2ccc(O)cc2)C(=O)NCC(=O)NCC(=O)N[C@@H](Cc2ccccc2)C(=O)N[C@@H](CC(C)C)C(=O)N[C@@H](CCCNC(=N)N)C(=O)N[C@@H](CCCNC(=N)N)C(=O)N1)C(=O)N[C@@H](CCCCN)C(N)=O [CSD-CH2(1,8)-NH2] ([Mpa]YGGFLRRCRPKLK-NH2; linker 1-9 via CH2)
t1/2 in human serum [2]: 95 min | activity at KOR in the functional cAMP assay (mouse KOR [1]): inactive

CC[C@H](C)[C@@H]1NC(=O)[C@H](CCCNC(=N)N)NC(=O)[C@H](CCCNC(=N)N)NC(=O)[C@H](CC(C)C)NC(=O)[C@H](Cc2ccccc2)NC(=O)CNC(=O)CNC(=O)[C@H](Cc2ccc(O)cc2)NC(=O)CCSCSC[C@@H](C(=O)N[C@@H](CCCCN)C(=O)N[C@@H](CC(C)C)C(=O)N[C@@H](CCCCN)C(N)=O)NC(=O)[C@H](CCCNC(=N)N)NC1=O [CSD-CH2(1,10)-NH2] ([Mpa]YGGFLRRIRCKLK-NH2; linker 1-11 via CH2)
Ki (mouse KOR [6]): 6 nM | Ki (mouse KOR [6]; [7]): 5.6 nM | improvement of KOR affinity by C-terminal amidation (mouse KOR [6]; versus counterpart with C-terminal carboxylic acid): ~6 fold | EC50 (mouse KOR [1]): 540 nM | Emax (mouse KOR [1]): 49 ± 15% | β-arrestin-2 recruitment efficiency (ligand induced BRET) (mouse KOR [3]): 38%

CC[C@H](C)[C@@H]1NC(=O)[C@H](CCCNC(=N)N)NC(=O)[C@H](CCCNC(=N)N)NC(=O)[C@H](CC(C)C)NC(=O)[C@H](Cc2ccccc2)NC(=O)CNC(=O)CNC(=O)[C@H](Cc2ccc(O)cc2)NC(=O)CCSCSC[C@@H](C(=O)N[C@@H](CCCCN)C(=O)N[C@@H](CC(C)C)C(=O)N[C@@H](CCCCN)C(=O)O)NC(=O)[C@H](CCCNC(=N)N)NC1=O [CSD-CH2(1,10)-OH] ([Mpa]YGGFLRRIRCKLK-OH; linker 1-11 via CH2)
Ki (mouse KOR [6]; [7]): 31 nM | activity at KOR in the functional cAMP assay (mouse KOR [1]): inactive | β-arrestin-2 recruitment efficiency (ligand induced BRET) (mouse KOR [3]): less than 25%
